Measured values taken from patent US6630484B1 (priority 1996, dated 2003).
“Also recorded” adds a separate entry of the source.

Legend:
[1] = target: T1, α-mannosidase from jack bean (Canavalia ensiformis, UniProt C0HJB3); experiment: Screen for inhibition of α-mannosidase from jack bean; type: biochemical; details: for IC50: read-out: Concentration Required for 50% Inhibitions, α-Mannosidase (jack bean)
T1 sequence (C0HJB3 1-981): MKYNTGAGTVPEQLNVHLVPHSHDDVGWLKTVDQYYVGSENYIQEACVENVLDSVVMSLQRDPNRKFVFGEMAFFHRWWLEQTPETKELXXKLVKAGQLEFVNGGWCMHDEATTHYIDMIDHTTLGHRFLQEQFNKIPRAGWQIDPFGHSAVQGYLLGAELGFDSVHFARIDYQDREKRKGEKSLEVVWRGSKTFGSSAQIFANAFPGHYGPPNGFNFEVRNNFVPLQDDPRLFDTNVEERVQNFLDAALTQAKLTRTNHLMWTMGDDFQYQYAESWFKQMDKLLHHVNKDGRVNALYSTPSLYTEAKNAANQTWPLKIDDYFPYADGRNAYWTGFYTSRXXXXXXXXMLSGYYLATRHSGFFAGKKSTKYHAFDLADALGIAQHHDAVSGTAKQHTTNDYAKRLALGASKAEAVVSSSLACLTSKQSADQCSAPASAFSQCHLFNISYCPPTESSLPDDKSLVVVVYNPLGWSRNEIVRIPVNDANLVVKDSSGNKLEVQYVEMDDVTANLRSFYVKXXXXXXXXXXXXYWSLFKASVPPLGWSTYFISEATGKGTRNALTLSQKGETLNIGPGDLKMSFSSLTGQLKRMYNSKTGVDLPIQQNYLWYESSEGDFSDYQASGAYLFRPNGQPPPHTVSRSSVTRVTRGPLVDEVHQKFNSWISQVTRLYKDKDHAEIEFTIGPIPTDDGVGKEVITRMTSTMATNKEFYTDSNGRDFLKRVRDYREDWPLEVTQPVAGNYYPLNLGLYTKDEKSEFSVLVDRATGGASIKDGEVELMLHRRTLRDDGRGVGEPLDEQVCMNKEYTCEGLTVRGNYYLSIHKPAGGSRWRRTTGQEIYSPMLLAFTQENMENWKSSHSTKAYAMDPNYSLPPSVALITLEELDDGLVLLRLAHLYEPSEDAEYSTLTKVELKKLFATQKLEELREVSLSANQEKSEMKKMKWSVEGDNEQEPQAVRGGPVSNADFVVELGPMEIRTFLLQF

[2] = target: T2, lysosomal mannosidase (Homo sapiens, UniProt O00754); experiment: Selectivity for inhibition of α-mannosidase II vs. lysosomal mannosidase; type: biochemical; details: for ratio M/L (smaller is better): ratio of activities of α-Mannosidase II/lysosomal mannosidase
T2 sequence (O00754 50-1011): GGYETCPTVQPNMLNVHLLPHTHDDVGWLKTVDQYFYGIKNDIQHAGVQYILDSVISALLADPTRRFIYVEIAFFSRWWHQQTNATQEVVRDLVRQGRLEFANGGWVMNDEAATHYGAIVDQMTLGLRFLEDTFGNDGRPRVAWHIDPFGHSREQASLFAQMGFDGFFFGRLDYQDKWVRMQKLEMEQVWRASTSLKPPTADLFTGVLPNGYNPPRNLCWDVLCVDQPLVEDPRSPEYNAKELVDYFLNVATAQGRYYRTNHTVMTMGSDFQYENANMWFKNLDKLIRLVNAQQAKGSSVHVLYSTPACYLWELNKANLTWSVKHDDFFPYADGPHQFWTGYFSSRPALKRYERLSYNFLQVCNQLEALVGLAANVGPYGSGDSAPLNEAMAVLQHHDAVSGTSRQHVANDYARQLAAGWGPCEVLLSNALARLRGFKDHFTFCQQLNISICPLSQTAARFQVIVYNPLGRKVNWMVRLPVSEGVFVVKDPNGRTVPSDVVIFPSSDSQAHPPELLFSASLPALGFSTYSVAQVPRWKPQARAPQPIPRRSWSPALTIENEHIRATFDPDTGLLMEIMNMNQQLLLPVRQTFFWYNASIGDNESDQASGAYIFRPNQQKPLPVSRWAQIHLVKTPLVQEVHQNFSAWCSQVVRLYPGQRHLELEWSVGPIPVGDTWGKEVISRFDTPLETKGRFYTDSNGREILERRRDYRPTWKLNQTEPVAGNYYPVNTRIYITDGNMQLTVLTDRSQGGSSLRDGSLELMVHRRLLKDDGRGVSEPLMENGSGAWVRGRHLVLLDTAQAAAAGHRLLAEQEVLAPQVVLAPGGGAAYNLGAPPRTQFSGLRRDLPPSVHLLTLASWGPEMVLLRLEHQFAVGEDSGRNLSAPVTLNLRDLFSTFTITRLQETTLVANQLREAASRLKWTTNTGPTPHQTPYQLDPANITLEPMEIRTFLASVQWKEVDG

[3] = 50 to 550 μg/kg/day continuous i.v. infusion over 5 days, cited from earlier work
[4] = target: T3, Golgi α-mannosidase II (Homo sapiens, UniProt Q16706); experiment: Inhibition of the glycoprotein processing Golgi α-mannosidase II; type: biochemical
T3 sequence (Q16706 1-1144): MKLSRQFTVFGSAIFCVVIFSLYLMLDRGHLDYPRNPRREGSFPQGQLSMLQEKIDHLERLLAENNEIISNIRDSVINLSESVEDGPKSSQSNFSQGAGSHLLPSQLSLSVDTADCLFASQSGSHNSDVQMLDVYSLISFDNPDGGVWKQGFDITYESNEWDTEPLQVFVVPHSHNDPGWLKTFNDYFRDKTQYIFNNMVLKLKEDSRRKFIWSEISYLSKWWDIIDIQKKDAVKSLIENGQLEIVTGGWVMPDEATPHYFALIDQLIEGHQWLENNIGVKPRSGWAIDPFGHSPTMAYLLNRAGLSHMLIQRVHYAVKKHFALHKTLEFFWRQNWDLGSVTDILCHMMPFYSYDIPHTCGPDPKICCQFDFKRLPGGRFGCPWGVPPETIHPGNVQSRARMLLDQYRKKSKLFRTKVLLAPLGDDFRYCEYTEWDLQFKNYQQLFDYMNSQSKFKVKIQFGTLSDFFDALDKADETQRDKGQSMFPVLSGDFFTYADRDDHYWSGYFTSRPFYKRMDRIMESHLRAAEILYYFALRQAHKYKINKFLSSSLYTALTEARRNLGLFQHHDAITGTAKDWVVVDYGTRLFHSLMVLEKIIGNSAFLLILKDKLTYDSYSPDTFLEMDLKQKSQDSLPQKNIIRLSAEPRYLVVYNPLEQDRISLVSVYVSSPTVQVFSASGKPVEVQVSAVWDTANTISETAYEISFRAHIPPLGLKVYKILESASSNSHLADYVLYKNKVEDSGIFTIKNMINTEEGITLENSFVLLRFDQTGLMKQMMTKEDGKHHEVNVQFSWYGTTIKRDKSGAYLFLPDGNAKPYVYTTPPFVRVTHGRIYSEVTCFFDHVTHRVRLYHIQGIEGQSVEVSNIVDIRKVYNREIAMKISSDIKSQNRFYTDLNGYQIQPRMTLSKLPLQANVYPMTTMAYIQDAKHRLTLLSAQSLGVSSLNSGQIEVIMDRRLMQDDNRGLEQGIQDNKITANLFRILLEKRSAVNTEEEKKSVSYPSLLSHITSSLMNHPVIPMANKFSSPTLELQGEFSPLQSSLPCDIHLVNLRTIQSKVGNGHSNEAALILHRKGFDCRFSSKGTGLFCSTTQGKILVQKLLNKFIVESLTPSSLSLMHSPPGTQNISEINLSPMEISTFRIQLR

[5] = animals; cited from earlier work

SMILES: CC[C@@H]1C[C@@H](O)[C@@H]2[C@H](O)[C@H](O)CN2C1 [Compound 26, (1S,2R,6R,8R,8aR)-6-Ethyl-1,2,8-trihydroxyindolizidine]
- α-mannosidase (jack bean) inhibitory activity (in words) [1]: highest degree of inhibitory activity; also recorded: significant decrease in activity
- IC50 [1]: 230 µM
- selectivity for inhibition of α-mannosidase II over lysosomal mannosidase (in words) [2]: increased selectivity
- ratio M/L (smaller is better) [2]: 0.47

SMILES: O[C@H]1[C@@H](CCOCc2ccccc2)CCN2C[C@@H](O)[C@@H](O)[C@H]12 [Compound 78, (1S,2R,7R,8S,8aS)-7-[2-(Benzyloxy)ethyl]-1,2,8-trihydroxyindolizidine]
- IC50 [1]: > 1000 µM

SMILES: O[C@H]1[C@H]2[C@H](O)CCCN2C[C@H]1O [Compound 1, swainsonine]
- toxicity observed in patients ([3]; repeated at 28 day intervals): Moderate toxicity
- Serum half-life ([3]; patients with advanced malignancies): 12 h
- inhibition of α-mannosidase II (in words) [4]: potent inhibitor
- preclinical toxicity [5]: low preclinical toxicity

SMILES: O[C@H]1[C@H]2[C@H](O)C[C@H](CCOCc3ccccc3)CN2C[C@H]1O [Compound 25, (1S,2R,6S,8R,8aR)-6-[2-(Benzyloxy)ethyl]-1,2,8-trihydroxyindolizidine]
- α-mannosidase (jack bean) inhibitory activity (in words) [1]: slight decrease in inhibitory activity
- IC50 [1]: 70 µM
- selectivity for inhibition of α-mannosidase II over lysosomal mannosidase (in words) [2]: increased selectivity
- ratio M/L (smaller is better) [2]: 0.33

SMILES: CCCC[C@@H]1CCN2C[C@@H](O)[C@@H](O)[C@@H]2[C@H]1O [Compound 56, (1S,2R,7R,8S,8aS)-7-Butyl-1,2,8-trihydroxyindolizidine]
- IC50 [1]: > 1000 µM

SMILES: CC1(C)OC2CN3CC[C@@H](CCOCc4ccccc4)[C@H](O)[C@H]3[C@@H]2O1 (stereo partly drawn) [Compound 55, (1S,2R,7R,8S,8aS)-7-[2-(Benzyloxy)ethyl]-8-hydroyx-1,2-O-isopropylidenedioxyindolizidine]
- IC50 [1]: > 1000 µM

SMILES: O[C@@H]1[C@H](CCOCc2ccccc2)CCN2C[C@@H](O)[C@@H](O)[C@@H]12 [Compound 53, (1S,2R,7S,8R,8aR)-7-[2-(Benzyloxy)ethyl]-1,2,8-trihydroxyindolizidine]
- α-mannosidase (jack bean) inhibitory activity (in words) [1]: weak inhibitor
- IC50 [1]: 890 µM

SMILES: CC[C@H]1C[C@@H](O)[C@@H]2[C@H](O)[C@H](O)CN2C1 [Compound 24, (1S,2R,6S,8R,8aR)-6-Ethyl-1,2,8-trihydroxyindolizidine]
- α-mannosidase (jack bean) inhibitory activity (in words) [1]: highest degree of inhibitory activity
- IC50 [1]: 30 µM
- selectivity for inhibition of α-mannosidase II over lysosomal mannosidase (in words) [2]: increased selectivity
- ratio M/L (smaller is better) [2]: 0.2

SMILES: CCCC[C@@H]1CCN2C[C@@H](O)[C@@H](O)[C@H]2[C@@H]1O [Compound 52, (1S,2R,7R,8R,8aR)-7-Butyl-1,2,8-trihydroxyindolizidine]
- IC50 [1]: > 1000 µM
- selectivity for inhibition of α-mannosidase II over lysosomal mannosidase [2]: 50 fold
- selectivity for inhibition of α-mannosidase II over lysosomal mannosidase (in words) [2]: increased selectivity
- ratio M/L (smaller is better) [2]: 0.02
- melting point: 156 °C

SMILES: CCCC[C@@H]1CCN2CC3OC(C)(C)O[C@H]3[C@@H]2[C@H]1O (stereo partly drawn) [Compound 54, (1S,2R,7R,8S,8aS)-7-Butyl-8-hydroxy-1,2-O-isopropylidenedioxyindolizidine]
- IC50 [1]: > 1000 µM

SMILES: CCCC[C@H]1CCN2C[C@@H](O)[C@@H](O)[C@@H]2[C@H]1O [Compound 77, (1S,2R,7S,8S,8aS)-7-Butyl-1,2,8-trihydroxyindolizidine]
- IC50 [1]: > 1000 µM

SMILES: O[C@H]1[C@H]2[C@H](O)C[C@@H](CCOCc3ccccc3)CN2C[C@H]1O [Compound 27, (1S,2R,6R,8R,8aR)-6-[2-(Benzyloxy)ethyl]-1,2,8-trihydroxyindolizidine]
- α-mannosidase (jack bean) inhibitory activity (in words) [1]: significant decrease in activity
- IC50 [1]: 275 µM

SMILES: O[C@H]1[C@H](CCOCc2ccccc2)CCN2C[C@@H](O)[C@@H](O)[C@H]12 [Compound 57, (1S,2R,7S,8S,8aS)-7-[2-(Benzyloxy)ethyl]-1,2,8-trihydroxyindolizidine]
- IC50 [1]: > 1000 µM
